Source: patent US20110311621A1, “PHARMACEUTICAL COMPOSITIONS AND METHODS OF DELVERY” (priority 2010, published 2011)

Experiments:
[1] = Aliskiren bioavailability after jejunal administration to conscious rats, compared with oral solution by gavage; settings: AUC relative to aliskiren oral solution (gavage)
Description: (i) Jejunal Administration to Conscious rats
To test the bioavailability of formulations in the jejunum of conscious rats, a specialized rat model was established in which two different cannulas are surgically implanted in male Sprague-Dowley rats (other rats may also be used): • 1—jejunal cannula to bypass the stomach and enable direct formulation administration to the jejunum; and • 2—jugular vein cannula to determine the systematic levels of the administered dextran following jejunal administration.
Rats were allowed to recover for 4 days before the study and were deprived of food for 18 hours before the start of the study. […]
Blood samples were drawn from the jugular vein at an appropriate series of times post jejunal administration and post IV administration, (or post SC administration), plasma was prepared and levels of active ingredient were determined in each sample. The average absolute Bioavailability (aBA) achieved after jejunal administration of the formulation is calculated as described below.
Exposure values, AUC (0-T), are calculated from the area under the serum concentration versus time curve (AUC) and are determined for jejunal and intravenous administration (or SC administration). […]

conscious rats = assay: Effect of CCK-8 on food intake: volume of D-glucose solution consumed by conscious rats; type: in vivo, Sprague Dawley rats; settings: 0.165 mg CCK-8 per rat; 30 min post administration
Method: Three of the above formulations (R, S and T) were prepared as follows for use in testing biological activity: Formulation R at levels of 0.165, 0.055, 0.003 mg CCK-8 per rat; Formulation S at 0.09 mg CCK-8 per rat; and Formulation T at 0.09 mg CCK-8 per rat. Thus Formulation R with 0.055 CCK-8 (% w/w) was used at 0.3 and 0.1 ml per rat to give a dose of 0.165 and 0.055 (mg per rat); Formulation R with 0.001 CCK-8 (% w/w) was used at 0.3 ml per rat to give a dose of 0.003 mg per rat; and Formulations S and T with 0.03 CCK-8 (% w/w) were both used at 0.3 ml to give a dose of 0.09 mg per rat.
The effect of oral administration of CCK8 on food intake was achieved by measuring the volume of D-glucose consumed by conscious rats (essentially using the method described by Chun-Min et al., Am. Physio. Soc. 296:R43-R50, 2009). The feeding response of conscious rats to exogenous oral CCK-8 was analyzed by measuring the volume of D-glucose solution consumed. Sprague Dawley rats cannulated at the jejunum (as described in Example 2) were fasted for 18 h. The fasted animals were administrated with a dose range of exogenous CCK8 using three formulations. Three groups served as controls: Rats administered with formulation alone; rats administered with CCK-8 in saline (0.165 mg
The volume of glucose solution consumption was measured at 30 min, 60 min and 90 min post administration. […]

| Fold from gavage [1] | SMILES | Average volume of glucose solution consumed (± standard error) (conscious rats) | Median volume of glucose solution consumed (conscious rats) |
| --- | --- | --- | --- |
| 1 | COCCCOc1cc(C[C@@H](C[C@H](N)[C@@H](O)C[C@H](C(=O)NCC(C)(C)C(N)=O)C(C)C)C(C)C)ccc1OC [Aliskiren oral solution, aliskiren] | – | – |
| – | CSCC[C@H](NC(=O)[C@H](Cc1ccc(OS(=O)(=O)O)cc1)NC(=O)[C@@H](N)CC(=O)O)C(=O)NCC(=O)N[C@@H](Cc1c[nH]c2ccccc12)C(=O)N[C@@H](CCSC)C(=O)N[C@@H](CC(=O)O)C(=O)N[C@@H](Cc1ccccc1)C(N)=O [CCK8 in saline, Sincalide] | 6.80 ± 0.99 mL | 7.90 mL |
